This is an account of results in patent publication US10611740B2, “Aryl dihydro-2H-benzo[b][1,4]oxazine sulfonamide and related compounds for use as agonists of RORγ and the treatment of disease” (Lycera Corporation, priority 2015, dated 2020).

The structures appear in SMILES notation. Bounds are passed on as bounds.

The target of one test is T1, RORγ-LBD (Homo sapiens, UniProt P51449).
T1 construct: made in house; host or cells: SF9 cells (baculovirus)
T1 sequence (P51449 269-508 limits assumed): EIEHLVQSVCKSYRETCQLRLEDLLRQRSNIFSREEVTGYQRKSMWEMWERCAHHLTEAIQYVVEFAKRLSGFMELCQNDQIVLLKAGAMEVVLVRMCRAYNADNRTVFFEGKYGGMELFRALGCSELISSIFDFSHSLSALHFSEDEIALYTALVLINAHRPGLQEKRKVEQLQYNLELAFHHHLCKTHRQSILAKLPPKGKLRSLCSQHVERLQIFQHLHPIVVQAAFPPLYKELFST
As to the kind of experiment: RORγ-Ligand Binding Domain (LBD) TR-FRET Assay.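 For TR-FRET Assay Max Response: 665/615 nm ratio relative to signal without ursolic acid or compound set at 100.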 Type of test: biochemical. In short, it runs like this:
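Compounds, diluted in DMSO and then in assay buffer (1% DMSO final), were combined with His-tagged RORγ-LBD lysate at roughly 3 nM final and a 200 nM biotinylated SRC1 LXXLL peptide. Ursolic acid was included at 2 μM final. Coactivator recruitment was detected by TR-FRET.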
A general note: TR-FRET usually uses a lanthanide donor and a delayed reading to cut background.

The next test has as its target T2, Gal4-RORγ-LBD (Homo sapiens, UniProt P51449).
T2 construct: expressed in transfected cells; host or cells: HEK-293 cells (pcDNA3.1neo plasmid)
T2 sequence (P51449 269-508 limits assumed): T1 sequence (P51449 269-508 limits assumed)
Description: Gal4-RORγ Luciferase Reporter Assay in HEK-293T Cells. Type of test: cell-based. The conditions noted are these: HEK-293 cells, luciferase reporter, with 2 μM ursolic acid. In a few lines:
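HEK-293 cells were transiently co-transfected with Gal4-RORγ-LBD and pGL4.31 Gal4-luciferase, with ursolic acid added at 2 μM final. Compounds were incubated overnight at 37° C. in 0.2% DMSO and luminescence read with One-Glo. Max Response is the upper plateau of a 4-parameter logistic fit, with signal lacking ursolic acid or compound set to 100.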
For orientation: Reporter assays use an easily measured gene product as a stand-in for the process of interest.

`O=C(O)CC[C@H]1CN(S(=O)(=O)c2cccc(C(F)(F)F)c2)c2cc(-c3cccc(C4CC4)c3)ccc2O1` [Compound 4R, (S)-3-(6-(3-cyclopropylphenyl)-4-((3-(trifluoromethyl)phenyl)-sulfonyl)-3,4-dihydro-2H-benzo[b][1,4]oxazin-2-yl)propanoic acid]: on RORγ-LBD, the EC50 (as a rule, the midpoint of the concentration-response curve) is below 500 nM and the “TR-FRET Assay Max Response” value is “**** (The symbol “****” indicates a value greater than 200)”. At Gal4-RORγ-LBD, the EC50 is below 500 nM and the “Gal4-RORγ Assay Max Response” value is “**** (The symbol “****” indicates a value greater than 200)”.

Regarding `Cc1cccc(-c2ccc3c(c2)N(S(=O)(=O)c2cccc(C(F)(F)F)c2)C[C@H](CCC(=O)O)O3)n1` [Compound 4S, (S)-3-(6-(6-methylpyridin-2-yl)-4-((3-(trifluoromethyl)phenyl)-sulfonyl)-3,4-dihydro-2H-benzo[b][1,4]oxazin-2-yl)propanoic acid], at RORγ-LBD, the EC50 is below 500 nM and the “TR-FRET Assay Max Response” value was “**** (The symbol “****” indicates a value greater than 200)”. In addition, at Gal4-RORγ-LBD, the EC50 lay within 500 to 5000 nM and the “Gal4-RORγ Assay Max Response” value is on record as “**** (The symbol “****” indicates a value greater than 200)”.

Consider `O=C(O)CC[C@H]1CN(S(=O)(=O)c2cccc(C(F)(F)F)c2)c2cc(-c3cccc(OC(F)F)c3)ccc2O1` [Compound 4T, (S)-3-(6-(3-(difluoromethoxy)-phenyl)-4-((3-(trifluoromethyl)-phenyl)sulfonyl)-3,4-dihydro-2H-benzo[b][1,4]oxazin-2-yl)propanoic acid], for which, on RORγ-LBD, the half-maximal effective concentration (EC50) is below 500 nM and the “TR-FRET Assay Max Response” value is “**** (The symbol “****” indicates a value greater than 200)”. Also, at Gal4-RORγ-LBD, the EC50 was below 500 nM and the “Gal4-RORγ Assay Max Response” value is “**** (The symbol “****” indicates a value greater than 200)”.

Consider `Cc1nn(C)c(C)c1-c1ccc2c(c1)N(S(=O)(=O)c1cccc(C(F)(F)F)c1)C[C@H](CCC(=O)O)O2` [Compound 4U, (S)-3-(4-((3-(trifluoromethyl)-phenyl)sulfonyl)-6-(1,3,5-trimethyl-1H-pyrazol-4-yl)-3,4-dihydro-2H-benzo[b][1,4]-oxazin-2-yl)propanoic acid], for which, at RORγ-LBD, the EC50 fell in the range of 500 to 5000 nM and the “TR-FRET Assay Max Response” value is “* (The symbol “*” indicates a value in the range of 25 to 90)”. Further, at Gal4-RORγ-LBD, the EC50 fell in the range of 500 to 5000 nM and the “Gal4-RORγ Assay Max Response” value is “* (The symbol “*” indicates a value in the range of 25 to 90)”.

Turning to `O=C(O)CC[C@H]1CN(S(=O)(=O)c2cccc(C(F)(F)F)c2)c2cc(-c3cccc4ccnn34)ccc2O1` [Compound 4V, (S)-3-(6-(pyrazolo[1,5-a]-pyridin-7-yl)-4-((3-(trifluoro-methyl)-phenyl)sulfonyl)-3,4-dihydro-2H-benzo[b][1,4]-oxazin-2-yl)propanoic acid], at RORγ-LBD, the EC50 was below 500 nM and the “TR-FRET Assay Max Response” value was “**** (The symbol “****” indicates a value greater than 200)”. Moreover, on Gal4-RORγ-LBD, the EC50 fell in the range of 500 to 5000 nM and the “Gal4-RORγ Assay Max Response” value is listed as “** (The symbol “**” indicates a value in the range of greater than 90 to 150)”.

Turning to `Cn1ccc(-c2ccc3c(c2)N(S(=O)(=O)c2cccc(C(F)(F)F)c2)C[C@H](CCC(=O)O)O3)n1` [Compound 4W, (S)-3-(6-(1-methyl-1H-pyrazol-3-yl)-4-((3-(trifluoromethyl)-phenyl)sulfonyl)-3,4-dihydro-2H-benzo[b][1,4]oxazin-2-yl)propanoic acid], at RORγ-LBD, the EC50 lay within 500 to 5000 nM and the “TR-FRET Assay Max Response” value is “**** (The symbol “****” indicates a value greater than 200)”. On Gal4-RORγ-LBD, the EC50 lay within 500 to 5000 nM and the “Gal4-RORγ Assay Max Response” value is on record as “** (The symbol “**” indicates a value in the range of greater than 90 to 150)”.

Turning to `CN(C)c1cccc(-c2ccc3c(c2)N(S(=O)(=O)c2cccc(C(F)(F)F)c2)C[C@H](CCC(=O)O)O3)n1` [Compound 4X, (S)-3-(6-(6-(dimethylamino)-pyridin-2-yl)-4-((3-(trifluoro-methyl)phenyl)sulfonyl)-3,4-dihydro-2H-benzo[b][1,4]-oxazin-2-yl)propanoic acid], on RORγ-LBD, the EC50 is below 500 nM and the “TR-FRET Assay Max Response” value is recorded as “**** (The symbol “****” indicates a value greater than 200)”. Also, at Gal4-RORγ-LBD, the EC50 was below 500 nM and the “Gal4-RORγ Assay Max Response” value is on record as “** (The symbol “**” indicates a value in the range of greater than 90 to 150)”.

Take `COc1cncc(-c2ccc3c(c2)N(S(=O)(=O)c2cccc(C(F)(F)F)c2)C[C@H](CCC(=O)O)O3)n1` [Compound 4Y, (S)-3-(6-(6-methoxypyrazin-2-yl)-4-((3-(trifluoromethyl)-phenyl)sulfonyl)-3,4-dihydro-2H-benzo[b][1,4]oxazin-2-yl)propanoic acid]: at RORγ-LBD, the EC50 was below 500 nM and the “TR-FRET Assay Max Response” value is “**** (The symbol “****” indicates a value greater than 200)”. Besides, at Gal4-RORγ-LBD, the EC50 lay in the range of 500 to 5000 nM and the “Gal4-RORγ Assay Max Response” value is “* (The symbol “*” indicates a value in the range of 25 to 90)”.

Turning to `Cc1nnc(-c2ccc3c(c2)N(S(=O)(=O)c2cccc(C(F)(F)F)c2)C[C@H](CCC(=O)O)O3)o1` [Compound 4Z, (S)-3-(6-(5-methyl-1,3,4-oxadiazol-2-yl)-4-((3-(trifluoro-methyl)phenyl)sulfonyl)-3,4-dihydro-2H-benzo[b][1,4]-oxazin-2-yl)propanoic acid], at RORγ-LBD, the EC50 lay in the range of 500 to 5000 nM and the “TR-FRET Assay Max Response” value is reported as “* (The symbol “*” indicates a value in the range of 25 to 90)”. At Gal4-RORγ-LBD, the EC50 was above 10000 nM.

Take `COc1cc(S(=O)(=O)N2C[C@H](CCC(=O)O)Oc3ccc(-c4cccc(Cl)c4)cc32)ccc1F` [Compound 5, (S)-3-(6-(3-chlorophenyl)-4-((4-fluoro-3-methoxyphenyl)sulfonyl)-3,4-dihydro-2H-benzo[b][1,4]oxazin-2-yl)propanoic acid]: on RORγ-LBD, the concentration giving a half-maximal response (EC50) was below 500 nM and the “TR-FRET Assay Max Response” value is listed as “*** (The symbol “***” indicates a value in the range of greater than 150 to 200)”. In addition, on Gal4-RORγ-LBD, the EC50 is 500 to 5000 nM and the “Gal4-RORγ Assay Max Response” value is listed as “** (The symbol “**” indicates a value in the range of greater than 90 to 150)”.

As for `CCOc1nn(CC)cc1S(=O)(=O)N1C[C@H](CCC(=O)O)Oc2ccc(-c3cccc(Cl)c3)cc21` [Compound 6A, (S)-3-(6-(3-chlorophenyl)-4-((3-ethoxy-1-ethyl-1H-pyrazol-4-yl)sulfonyl)-3,4-dihydro-2H-benzo[b][1,4]oxazin-2-yl)propanoic acid], on RORγ-LBD, the EC50 is below 500 nM and the “TR-FRET Assay Max Response” value was “*** (The symbol “***” indicates a value in the range of greater than 150 to 200)”. Besides, on Gal4-RORγ-LBD, the EC50 lay in the range of 500 to 5000 nM and the “Gal4-RORγ Assay Max Response” value is reported as “* (The symbol “*” indicates a value in the range of 25 to 90)”.

As to `O=C(O)CC[C@H]1CN(S(=O)(=O)c2cccc(Cl)c2)c2cc(-c3cccc(Cl)c3)ccc2O1` [Compound 6B, (S)-3-(6-(3-chlorophenyl)-4-((3-chlorophenyl)sulfonyl)-3,4-dihydro-2H-benzo[b][1,4]oxazin-2-yl)propanoic acid], on RORγ-LBD, the EC50 is below 500 nM and the “TR-FRET Assay Max Response” value is “**** (The symbol “****” indicates a value greater than 200)”. Moreover, on Gal4-RORγ-LBD, the EC50 fell in the range of 500 to 5000 nM and the “Gal4-RORγ Assay Max Response” value is recorded as “** (The symbol “**” indicates a value in the range of greater than 90 to 150)”.

Regarding `CCn1cc(S(=O)(=O)N2C[C@H](CCC(=O)O)Oc3ccc(-c4cccc(Cl)c4)cc32)c(Cl)n1` [Compound 6C, (S)-3-(4-((3-chloro-1-ethyl-1H-pyrazol-4-yl)sulfonyl)-6-(3-chlorophenyl)-3,4-dihydro-2H-benzo[b][1,4]oxazin-2-yl)propanoic acid], on RORγ-LBD, the EC50 is below 500 nM and the “TR-FRET Assay Max Response” value is reported as “**** (The symbol “****” indicates a value greater than 200)”. At Gal4-RORγ-LBD, the EC50 fell in the range of 500 to 5000 nM and the “Gal4-RORγ Assay Max Response” value is given as “** (The symbol “**” indicates a value in the range of greater than 90 to 150)”.

Consider `CCOc1ncc(C(F)(F)F)cc1S(=O)(=O)N1C[C@H](CCC(=O)O)Oc2ccc(-c3cccc(Cl)c3)cc21` [Compound 6D, (S)-3-(6-(3-chlorophenyl)-4-((2-ethoxy-5-(trifluoromethyl)-pyridin-3-yl)sulfonyl)-3,4-dihydro-2H-benzo[b][1,4]-oxazin-2-yl)propanoic acid], for which, at RORγ-LBD, the EC50 was below 500 nM and the “TR-FRET Assay Max Response” value is “**** (The symbol “****” indicates a value greater than 200)”. Moreover, at Gal4-RORγ-LBD, the EC50 was in the range of 500 to 5000 nM and the “Gal4-RORγ Assay Max Response” value was “** (The symbol “**” indicates a value in the range of greater than 90 to 150)”.

On to `O=C(O)CC[C@H]1CN(S(=O)(=O)c2cc(C(F)(F)F)cnc2OCCO)c2cc(-c3cccc(Cl)c3)ccc2O1` [Compound 6G], for which, at RORγ-LBD, the EC50 was below 500 nM and the “TR-FRET Assay Max Response” value is “**** (The symbol “****” indicates a value greater than 200)”. Also, at Gal4-RORγ-LBD, the EC50 lay in the range of 500 to 5000 nM and the “Gal4-RORγ Assay Max Response” value is recorded as “** (The symbol “**” indicates a value in the range of greater than 90 to 150)”.
